Type in all cases: cell-based
Experiment [1] relates to A431 cells. Briefly: Live cell confocal microscopy of uptake of endocytic probes and R8 conjugates, with or without actin inhibitors. The protocol: HeLa or A431 cells were seeded on 35 mm MatTek dishes (Ashland, US) at respective densities of 5 × 10^5 cells/dish and 1.0 × 10^6 cells/dish and maintained in 2.5 mL D-MEM containing 10%, 100 IU/mL penicillin and 100 µg/mL streptomycin. Cells were then allowed to adhere for 24 hr at 37 °C/5% CO2 to reach a confluence of ~80%. On the day of experimentation, they were washed with PBS and then incubated with 100 µl serum-free D-MEM (thus reducing well described serum binding effects[32]) containing either 2 µM CPP conjugate (R8-Alexa488 or EGFP-R8), 5 µg/ml transferrin-Alexa 647 (TF-647) or 0.1 mg/ml dextran (10 kDa)-Alexa 647 (Dex-647). The cells were then incubated for 1 hr (or 30 min for TF-647) at 37 °C/5% CO2 before washing 3x with PBS (TF-647 or Dex-647) or PBS 0.5 mg/mL heparin (R8-conjugates). They were then washed once with PBS, prior to the addition of 2 mL of imaging medium (phenol red free RPMI, 20 mM HEPES pH 7.4) and analysis by live cell confocal microscopy.
Cells were seeded on MatTek dishes as previously described and were washed with PBS before preincubation at 37 °C with diluent control (DMSO) or actin inhibitors: 10 µM Cyt D for 15 min; 0.1–1 µM Lat B for 30 min; 0.2–4 µM JAS for 45 min; 50–100 µM Y27632 for 4 hr in serum-free D-MEM at 37 °C/5% CO2. Endocytic probes (TF-647, Dex-647) or R8-conjugates were then incubated with the cells in the absence (control) or presence of the inhibitors and further incubated at 37 °C/5% CO2 for times specified in figure legends prior to analysis by confocal microscopy. For pulse chase experiments, A431 cells were incubated with 0.1 mg/ml Dex-647 for 2 hr (pulse) followed by washing and a further 4 hr (chase) in fresh complete growth medium. EGFP-R8 (2 µM) was then added for 1 hr in the absence or presence of 10 µM Cyt D. EGFP-R8 and Dex-647 subcellular distribution was then analysed in live cells using confocal microscopy. For low temperature experiments, cells were preincubated with Cyt D as above and then placed on ice for 2 min prior to addition of ice cold EGFP-R8. The cells were then maintained under these conditions for 1 hr prior to analysis by confocal microscopy.
Analysis was performed on a Leica SP5 confocal laser scanning microscope, equipped with laser lines: 405 Blue Diode (Excitation wavelength 405 nm for Hoechst 33342) Argon (Excitation wavelength 488 nm for Alexa 488 or EGFP), Helium Neon Laser 1 (Excitation wavelength 543 nm for Tetramethyl-Rhodamine Phalloidin (Rh-P)) and Laser 2 (Excitation wavelength 633 nm for Alexa 647 conjugates). All images presented in this study were obtained using a HCX PL APO 63x 1.4 NA oil immersion objective with Leica Type F immersion oil. Parameters “Gain” and “Off-set” of the individual photomultiplier tubes were adjusted between experiments in order to obtain optimal image acquisition avoiding saturation. For multi-channel image acquisition, the channels were scanned in a sequential recording mode to avoid spectral cross-talk caused by overlapping excitation and/or emission spectra of fluorophores. Acquisition mode “XYZ” and image resolutions (pixels/image) of 512 × 512 or 1024 × 1024 were selected and pinhole size was set to 1 Airy Unit. Depending on acquisition requirements the scan speed was set as either 400 or 700 Hz and for single section images, the same optical section was scanned 3x to generate a line average image. Captured images were then analysed using ImageJ. […]

Experiment [2] deals with A431 cells. Briefly: Flow cytometry of cellular uptake of EGFP-R8 in the presence of actin inhibitors. Conditions: for Normalised Fluoresence Intensity (EGFP-R8): mean of geometric means, three independent experiments. As to the method:
A431 cells were seeded onto 12-well plates and cultured for 24 hr to be ~80% confluent on the day of experiment. Cells were washed twice with PBS and then incubated with diluent control (DMSO/dH2O) or actin inhibitors as previously described. They were then loaded with serum-free DMEM containing either 2 µM EGFP-R8, 5 µg/ml TF-647 or 0.1 mg/ml Dex-647 in the presence or absence of actin inhibitors for times stipulated in the figure legends. The plates were then placed on ice to prevent further uptake and washed 3x with either ice-cold PBS or 0.5 mg/ml heparin in PBS. To remove the plasma membrane bound TF, cells were washed 3x with ice-cold PBS followed by an incubation for 1 min in ice-cold acid wash (0.2 M acetic acid, 0.2 M NaCl, pH 2.0)[33]. All cells were then washed twice with PBS at room temperature before trypsinisation at 37 °C for 5 min before placing the detached cells in centrifuge tubes and centrifuging at 4 °C for 3 min at 800 × g. The obtained cell suspension was washed 3x with ice-cold PBS and finally resuspended in 300 µl ice-cold PBS for measurement of cell-associated fluorescence (cell gate 50,000 cells) by flow cytometry on a BD FACSVerse utilising a 488 laser and 527/32 filter for EGFP analysis and a 633 nm laser and 660/10 filter for Alexa 647. Cells were gated using FSC-A/SSC-A to isolate single cell populations and analysed using FlowJo.
Flow cytometry measurements represent the mean fluorescence from three independent experiments performed in duplicate, where each individual data point was the geometric mean. A two-tailed unpaired Students t-test was used to test for differences within experiments. Significant differences were classed as having a P value of < 0.05.
Background: Flow cytometry measures light scatter and fluorescence of single cells or particles in a stream.

The subject of experiment [3] is actin architecture in A431 cells. Briefly: Actin cytoskeleton visualisation (Rh-P staining, confocal microscopy). Conditions: A431 cells, Rh-P staining; for effect on actin cytoskeleton: 30 min. The protocol:
Analysis was performed on a Leica SP5 confocal laser scanning microscope, equipped with laser lines: 405 Blue Diode (Excitation wavelength 405 nm for Hoechst 33342) Argon (Excitation wavelength 488 nm for Alexa 488 or EGFP), Helium Neon Laser 1 (Excitation wavelength 543 nm for Tetramethyl-Rhodamine Phalloidin (Rh-P)) and Laser 2 (Excitation wavelength 633 nm for Alexa 647 conjugates). All images presented in this study were obtained using a HCX PL APO 63x 1.4 NA oil immersion objective with Leica Type F immersion oil. Parameters “Gain” and “Off-set” of the individual photomultiplier tubes were adjusted between experiments in order to obtain optimal image acquisition avoiding saturation. For multi-channel image acquisition, the channels were scanned in a sequential recording mode to avoid spectral cross-talk caused by overlapping excitation and/or emission spectra of fluorophores. Acquisition mode “XYZ” and image resolutions (pixels/image) of 512 × 512 or 1024 × 1024 were selected and pinhole size was set to 1 Airy Unit. Depending on acquisition requirements the scan speed was set as either 400 or 700 Hz and for single section images, the same optical section was scanned 3x to generate a line average image. Captured images were then analysed using ImageJ. In some cases (live cell imaging) the same cells were also imaged using […] microscopy (DIC).
A recently described method was utilised giving information on actin architecture at different regions of the cells termed basal and cell body and apex (CBA). For actin staining, HeLa (0.5 × 10^6 cells/well) or A431 (1.0 × 10^6 cells/well) cells in 2.5 mL D-MEM containing 10% FBS were seeded on round borosilicate No.1.5 cover slips in 6 –well plates and allowed to adhere for 24 hr at 37 °C/5% CO2, to reach a confluence of ~80%. The cells were then treated with actin disrupters as described above, washed 3x with PBS and fixed for 15 min at room temperature with 3% PFA in PBS. Cells were then washed 3x with PBS and permeabilised with 0.2% Triton X-100 in PBS at room temperature for 5 min, washed 3x with PBS and stained for cell nuclei with 1.0 µg/ml Hoechst 33342 in PBS and for polymerised actin with 1.0 µg/ml Rh-P in PBS for 15 min at room temperature. The cells were finally washed 3x with PBS and once with distilled water, coverslips were mounted in DAKO mounting medium on glass microscope slides and imaged by confocal microscopy.

The mark [4] stands for this setting: 0.5 µM Lat B, 30 min preincubation, then 2 µM EGFP-R8 for 1 hr with Lat B.

Regarding `C/C1=C\[C@H](C)C[C@H](C)OC(=O)C[C@H](c2ccc(O)cc2)NC(=O)[C@@H](Cc2c(Br)[nH]c3ccccc23)N(C)C(=O)[C@H](C)NC(=O)[C@@H](C)C1` [JAS, Jasplakinolide], the “effect on EGFP-R8 uptake” value in the experiment with A431 cells [1] (2–4 µM JAS, 45 min preincubation, then 2 µM EGFP-R8 for 1 hr with JAS) was “dramatic increase”. Further, in the experiment with A431 cells [2] (4 µM JAS, 45 min preincubation, then 2 µM EGFP-R8 for 1 hr with JAS), the “Normalised Fluoresence Intensity (EGFP-R8)” value is on record as 4.00. The “fold increase in fluorescence (EGFP-R8 uptake)” value in the experiment with A431 cells [2] (4 µM JAS, 45 min preincubation, then 2 µM EGFP-R8 for 1 hr with JAS, vs diluent control (0.4% v/v DMSO), P = 0.0025) is “four”. Also, the “effect on actin organisation” value was “actin staining was more prominent on the cell periphery” in experiment [3] (0.2 µM JAS, 45 min, basal and CBA regions); “actin staining appeared in large clumps” in experiment [3] (2 µM JAS, 45 min). Also, the “effect on actin organisation (actin staining)” value in experiment [3] (4 µM JAS, 45 min) was “completely lost from all cells”.
Take `C/C1=C/C(=O)O[C@@H]2C[C@@H](CC[C@H](C)/C=C\CC1)O[C@@](O)([C@@H]1CSC(=O)N1)C2` [Lat B, Latrunculin B]: the “effect on cell associated EGFP-R8 fluorescence” value with A431 cells [1] (setting [4]) is “much higher fluorescence compared to controls”. In addition, the “fold increase in uptake (EGFP-R8)” value with A431 cells [2] (0.5 µM Lat B, 30 min preincubation, then 2 µM EGFP-R8 for 1 hr with Lat B, heparin wash, vs diluent control, P = 0.0045) was found to be 6.23 fold. Besides, in the experiment with A431 cells [2] (setting [4]), the “Normalised Fluoresence Intensity (EGFP-R8)” value is given as 6.23. In addition, the “effect on actin cytoskeleton” value in experiment [3] (0.1 μM Lat B, basal and CBA sections) is recorded as “formation of small actin aggregates”; in experiment [3] (0.5 μM Lat B), “these aggregates were extremely prominent”; in experiment [3] (1 μM Lat B) it was “major disruption of the actin organisation”.

The record behind these values is article PMC5943252, “Contrasting roles for actin in the cellular uptake of cell penetrating peptide conjugates” (Scientific Reports, 2018).
